Reference: patent EP2974714B1, “USE OF DERIVATIVES WITH C-O-P BONDS IN PATIENTS WITH RENAL FAILURE” (LABORATORIS SANIFIT, S.L., priority 2013, dated 2014)

What was measured:
[1] = tested on: progression of vitamin D-induced vascular calcification; assay: Progression of vitamin D-induced calcification (100,000 IU/kg x 3), rat model for 2 weeks; format: in vivo, SD rats; details: highest dose (60 mg/kg s.c.), days 5 to 14
Procedure: Experimental: 48 SD rats were treated x3 with vitamin D (s.c. 100,000 IU/kg) to induce tissue calcification. Calcification was allowed to progress for 5 days, and treatment with 0, 10 or 60 mg/kg IP6 s.c. was administered from day 5 until day 14. Calcification of the kidneys and heart was evaluated.

[2] = Administration of IP6 via the dialysis system (dialysability, calcium chelation in blood); format: in vitro ADME, human
Procedure: Experimental: 1 litre of human blood obtained from patients undergoing therapeutic phlebotomy was introduced into a recipient forming a closed dialysis circuit to simulate a real dialysis. Two experiments were performed (administration pre- and post-dialyser, both in bypass and dialysis mode), administering IP6 to human blood for 20 minutes when outside the recipient (which simulated the animal or human body) and circulating via the dialysis circuit. The recipient containing 1 litre of whole blood at a controlled temperature of 37°C is connected to the dialysis apparatus to form a closed circuit. The dialysis apparatus will be connected for 1 hour (dialysis fluid flow of 500 ml/min and blood flow of 350 ml/min). Blood samples are collected at different times to determine the IP6 and ionic calcium levels.

[3] = tested on: tissue calcification in a chronic renal impairment model (5/6 nephrectomised rats); assay: 5/6 nephrectomy model, IP6 by i.v. bolus; format: in vivo, SD rats; details: i.v. bolus 1 or 5 mg/kg, 8 weeks
Procedure: Experimental: 48 SD rats were 5/6 nephrectomised by complete right lateral nephrectomy and 2/3 partial nephrectomy of the left kidney. 16 animals per group were treated intravenously (bolus) with 2 ml/kg saline, 1 mg/kg IP6 or 5 mg/kg IP6. The animals received a phosphate-rich diet (1% Ca, 1.2% P) containing 20% lactose. After 8 weeks the aorta, heart and remaining 1/3 kidney were collected, and the tissue calcium content determined.

[4] = Calcium chelation by IP6 in vitro (calcium-selective electrode); format: physicochemical; details: 2.5 mM calcium in NaCl 0.15 M, pH 7.40
Procedure: Experimental: a 2.5 mM of calcium in NaCl 0.15 M, pH 7.40, was pipetted with increasing concentrations of IP6. The amount of free ionic calcium was measured potentiometrically using a calcium-selective electrode and a potentiometer.

[5] = tested on: tissue calcification in uraemic animals; assay: Adenine model, non-bolus-type intravascular administration; format: in vivo, male Wistar rats
Procedure: Experimental: CKD was induced in 2 groups (n=12) of male Wistar rats by oral (p.o.) treatment with adenine (600 mg/kg/day) daily for 10 days. After treatment with adenine, the rats received alpha-calcidol at a dose of 300 ng/kg (3x/week, p.o.) until day 28. From day 0 until sacrifice (day 28), the animals were treated with an intravascular infusion of 50 mg/kg IP6 or saline for 4 hours. After 28 days the aorta and heart were collected, and the tissue calcium content determined.

[6] = PK profile of IP6 s.c. in rats with normal and diminished kidney function; format: in vivo, Wistar rats
Procedure: Experimental: a single s.c. dose (10 mg/kg) was administered to rats with normal kidney function. Plasma samples were obtained at different timepoints up to 60 minutes. A different group of Wistar rats received oral treatment with adenine 600 mg/kg (p.o.) for 10 days to induce renal impairment. Alpha-calcidol (300 ng/kg) was administered on days 11 and 13 and plasma samples were collected at different timepoints up to 60 minutes on day 14. The plasma IP6 concentrations were quantified for both groups.

[7] = HAP crystallisation induction period (synergy with other treatments); format: physicochemical
Procedure: Experimental: hydroxyapatite (HAP) was crystallised by mixing appropriate concentrations of calcium and phosphate at pH 7.4. The effect of cinacalcet and sevelamer was simulated by suitably modifying the calcium and phosphate concentrations. The induction period (time required for HAP to begin to crystallise) was recorded as the analytical signal.

[8] = Release of IP6 from the HAP surface; format: binding; details: after incubation for 2 days in IP6-free solution
Procedure: Experimental: 130 mg HAP was incubated in triplicate with 7.6 µM IP6, at 37°C, pH 7.4, for different time intervals while stirring continuously. Subsequently, the HAP with adsorbed IP6 was placed in an IP6-free solution and the amount of IP6 released from the surface thereof evaluated at different timepoints.

[9] = In vitro affinity (adsorption) of IP6 for hydroxyapatite; format: binding; details: for maximum adsorption of IP6 on the HAP surface: 7.6 µM IP6 for 8 hours
Procedure: […] The total quantity of IP6 bound to the surface of the target (HAP) was quantified.
To characterise the behaviour of IP6 binding, the EC50 and Emax for the adsorption thereof on HAP were calculated. This was performed using a non-linear regression model (Log[agonist] vs. response - slope variable; GraphPad Prism software).

cardiovascular function [10] = assay: Cardiovascular function after bolus-type intravenous administration in conscious dogs by telemetry; format: in vivo
Procedure: Experimental: 4 male dogs, 2 per dose, were injected with 10, 15 and 30 mg/kg. Two washout days were introduced between the different doses. The ECGs were recorded telemetrically. Blood ionic calcium concentrations were determined on different days to the ECG measurements.

cardiovascular function [11] = assay: Cardiovascular function after 2 h intravascular infusion in conscious dogs by telemetry; format: in vivo; details: for peak IP6 levels: dogs
Procedure: Experimental: 4 male dogs were treated with 3, 10 and 30 mg/kg IP6 by infusion for 2 h in a Latin square design. A washout period of one week was performed between doses. ECGs were measured telemetrically at 1 h and 20 minutes prior to infusion and 5, 15, 30, 45 minutes, 1, 2, 6 and 24 h post-infusion. In a second stage, blood samples were taken for PK, for the same doses, at 20 minutes prior to infusion and 5, 15, 30 minutes and 1, 1.5, 2, 3 and 6 h post-infusion. In this case the washout period between doses was 2 days. Total and free calcium in the blood samples was also measured.

proteins = assay: Binding of IP6 to proteins (dialysability); format: in vitro ADME
[12] = intravascular infusion of 50 mg/kg for 4 hours, 28 days, adenine uraemic rats
[13] = normal Wistar rats, single s.c. dose 10 mg/kg
[14] = uraemic rats (adenine), s.c. 10 mg/kg

## O=P(O)(O)O[C@H]1[C@H](OP(=O)(O)O)[C@@H](OP(=O)(O)O)[C@H](OP(=O)(O)O)[C@@H](OP(=O)(O)O)[C@H]1OP(=O)(O)O [IP6, inositol hexaphosphate]
[1]
  inhibition of the progression of heart calcification: 100%
  inhibition of the progression of renal calcification: 95%
[2]; administration via the dialysis line for 20 minutes, 1 litre human blood, 37°C
  loss of IP6 via the dialysis membrane: not lost via the dialysis membrane
[2]; apparatus in bypass mode
  effect on free calcium in blood: chelates (sequesters) free calcium
[2]; apparatus in dialysis mode
  effect on ionic calcium levels in blood: ionic calcium levels are restored
[3]
  calcification inhibition (aorta, heart, remaining kidney): no evidence of calcification inhibition
[4]
  IP6 concentration above which ionic calcium chelation is significant: above 379 µM
  IP6 concentration at which chelation saturates: 3788 µM
[4]; read-out: EC50 of ionic calcium chelation
  EC50: 539 µM
[5]; due to high metabolic rate, 50 mg/kg infusion, uraemic rats
  reduction of plasma IP6 levels by the end of the experiment: 90%
[5]; [12]
  reduction in average calcification in the aorta: 80%
  reduction in average calcification in the heart: 85%
[6]; [13]
  duration of measurable levels: at least 30 minutes
  peak concentration (plasma IP6): 7.4 µM
  time of peak concentration post-administration: 15 min
[6]; [14]
  peak concentration (plasma IP6): 1.8 µM
  time of peak concentration post-administration: 5 min
[7]; 11.4 µM IP6, pH 7.4, control 8 minutes
  induction time (time required for HAP to begin to crystallise): 28 min
[7]; IP6 0-11.4 µM with constant simulated concentration of cinacalcet or sevelamer
  effect of adding IP6 to simulated cinacalcet and sevelamer: clear synergistic effect
[8]
  IP6 remaining bound to the HAP surface: 80%
[9]; 25 mg HAP
  maximum adsorption of IP6 on the HAP surface: 6.42 mg
[9]; 25 mg HAP, non-linear regression
  EC50: 0.46 µM
[9]; 75 mg HAP, non-linear regression
  EC50: 0.96 µM
[9]; 130 mg HAP, non-linear regression
  EC50: 1.22 µM
[9]; 300 mg HAP
  maximum adsorption of IP6 on the HAP surface: 4.8 mg
[9]; 300 mg HAP, non-linear regression
  EC50: 2.09 µM
[9]; 37°C, pH 7.4
  IP6 concentration at saturation of adsorption on HAP: ≥ 7.6 µM
[9]; non-linear regression
  Emax for adsorption on HAP (saturation value): 6.42 mg/g
Cardiovascular function [10]; i.v. bolus
  dose above which mild tachycardia and prolonged QTc interval were observed: above 15 mg/kg
  dose above which tachycardia and QTc prolongation become significant: above 30 mg/kg
Cardiovascular function [10]; i.v. bolus 10 mg/kg
  effects on ECG parameters or ionic calcium concentrations: no significant effects
Cardiovascular function [10]; i.v. bolus, correlated with the prolonged QTc interval
  decrease in ionic calcium: 30%
Cardiovascular function [11]; 3 mg/kg infusion for 2 h
  peak IP6 levels: 27 µM
Cardiovascular function [11]; 10 mg/kg infusion for 2 h
  peak IP6 levels: 150 µM
Cardiovascular function [11]; 30 mg/kg infusion for 2 h
  peak IP6 levels: 482 µM
Cardiovascular function [11]; infusion for 2 h, 3, 10 and 30 mg/kg
  mean blood ionic calcium concentrations: unaffected
Cardiovascular function [11]; infusion for 2 h, 3, 10 and 30 mg/kg (any dose)
  state of health, weight, cardiorespiratory function, ECG, body temperature and total and free potassium in blood: relatively unaffected
proteins
  binding of IP6 to proteins: 70-90%
  compound available to be dialysed: 10-30%
